Source: patent publication US12660819B2, “Herbicidal derivatives” (SYNGENTA CROP PROTECTION AG, priority 2020, dated 2026)

How the values were obtained:
Type in all cases: in vivo
[1] = system: Echinochloa crus-galli (ECHCG); assay: Post-emergence Test (glasshouse, percentage damage to the plant); conditions: post-emergence spray, 1000 g/ha unless otherwise stated, evaluated after 13 days
How it was run: (§1)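 After sowing in standard soil, pots were kept at 24/16 °C (day/night), 14 h light and 65% humidity. They were sprayed at 1000 g/ha unless otherwise stated, watered twice daily, and assessed for percentage damage at 13 days on a 1–5 scale.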

[2] = system: Ipomoea hederacea (IPOHE); assay: as above; conditions: post-emergence spray, 1000 g/ha unless otherwise stated, evaluated after 13 days
How it was run: (§2)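 Seeds sown in standard soil in a glasshouse (24/16 °C day/night, 14 h light, 65% humidity), then sprayed with an aqueous solution of the compound formulated in acetone/water 50:50 with 0.5% Tween 20 at 1000 g/ha unless otherwise stated. Percentage damage was scored after 13 days on a five-point scale (5=81-100%; 1=0-20%).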

[3] = system: Zea mays (ZEAMX); assay: as above; conditions: post-emergence spray, 1000 g/ha unless otherwise stated, evaluated after 13 days
How it was run: as §2

[4] = system: Abutilon theophrasti (ABUTH); assay: as above; conditions: post-emergence spray, 1000 g/ha unless otherwise stated, evaluated after 13 days
How it was run: as §1

[5] = system: Amaranthus retoflexus (AMARE); assay: as above; conditions: post-emergence spray, 1000 g/ha unless otherwise stated, evaluated after 13 days
How it was run: as §1

[6] = system: Setaria faberi (SETFA); assay: as above; conditions: post-emergence spray, 1000 g/ha unless otherwise stated, evaluated after 13 days
How it was run: as §2

[7] = system: Echinochloa crus-galli (ECHCG); assay: Pre-emergence Test (glasshouse, percentage damage to the plant); conditions: 1000 g/ha unless otherwise stated, five-point scale
[8] = system: Zea mays (ZEAMX); assay: as above; conditions: 1000 g/ha unless otherwise stated, five-point scale
[9] = system: Ipomoea hederacea (IPOHE); assay: as above; conditions: 1000 g/ha unless otherwise stated, five-point scale
[10] = system: Amaranthus retoflexus (AMARE); assay: as above; conditions: 1000 g/ha unless otherwise stated, five-point scale
[11] = system: Setaria faberi (SETFA); assay: as above; conditions: 1000 g/ha unless otherwise stated, five-point scale
[12] = system: Abutilon theophrasti (ABUTH); assay: as above; conditions: 1000 g/ha unless otherwise stated, five-point scale

Row | SMILES | Post-emergence Test ECHCG, percentage damage to the plant (five-point scale) [1] | Post-emergence Test IPOHE, percentage damage to the plant (five-point scale) [2] | Post-emergence Test ZEAMX, percentage damage to the plant (five-point scale) [3] | Post-emergence Test ABUTH, percentage damage to the plant (five-point scale) [4] | Post-emergence Test AMARE, percentage damage to the plant (five-point scale) [5] | Post-emergence Test SETFA, percentage damage to the plant (five-point scale) [6] | percentage damage to the plant, ECHCG [7] | percentage damage to the plant, ZEAMX [8] | percentage damage to the plant, IPOHE [9] | percentage damage to the plant, AMARE [10] | percentage damage to the plant, SETFA [11] | percentage damage to the plant, ABUTH [12]
1 | CCn1c(C)c(-c2ccc(Cl)c(C#N)c2)c(=O)c(C(=O)O)c1-c1ccc(Cl)c(Cl)c1 [Compound 57, 5-(4-chloro-3-cyano-phenyl)-2-(3,4-dichlorophenyl)-1-ethyl-6-methyl-4-oxo-pyridine-3-carboxylic acid] | 3 (3=41-60%) | 2 (2=21-40%) | 2 (2=21-40%) | 3 (3=41-60%) | 4 (4=61-80%) | 4 (4=61-80%) | 3 (3=41-60%) | 2 (2=21-40%) | 2 (2=21-40%) | 3 (3=41-60%) | 4 (4=61-80%) | 1 (1=0-20%)
2 | CCn1c(C)c(-c2cnc(F)c(F)c2)c(=O)c(C(=O)O)c1-c1ccc(Cl)c(Cl)c1 [Compound 59, 2-(3,4-dichlorophenyl)-5-(5,6-difluoro-3-pyridyl)-1-ethyl-6-methyl-4-oxo-pyridine-3-carboxylic acid] | 3 (3=41-60%) | 3 (3=41-60%) | 3 (3=41-60%) | 3 (3=41-60%) | 3 (3=41-60%) | 4 (4=61-80%) | 2 (2=21-40%) | 1 (1=0-20%) | 3 (3=41-60%) | 1 (1=0-20%) | 4 (4=61-80%) | 3 (3=41-60%)
3 | CCn1c(C)c(-c2cccc(SC)c2)c(=O)c(C(=O)O)c1-c1ccc(Cl)c(Cl)c1 [Compound 114, 2-(3,4-dichlorophenyl)-1-ethyl-6-methyl-5-(3-methylsulfanylphenyl)-4-oxo-pyridine-3-carboxylic acid] | 1 (1=0-20%) | 1 (1=0-20%) | 1 (1=0-20%) | 1 (1=0-20%) | 1 (1=0-20%) | 1 (1=0-20%) | 1 (1=0-20%) | 1 (1=0-20%) | 1 (1=0-20%) | 1 (1=0-20%) | 1 (1=0-20%) | 1 (1=0-20%)
4 | CCn1c(C)c(-c2cccc(OCC(F)(F)F)c2)c(=O)c(C(=O)O)c1-c1ccc(Cl)c(Cl)c1 [Compound 110, 2-(3,4-dichlorophenyl)-1-ethyl-6-methyl-4-oxo-5-[3-(2,2,2-trifluoroethoxy)phenyl] pyridine-3-carboxylic acid] | 1 (1=0-20%) | 1 (1=0-20%) | 1 (1=0-20%) | 1 (1=0-20%) | 1 (1=0-20%) | 1 (1=0-20%) | 1 (1=0-20%) | 1 (1=0-20%) | 1 (1=0-20%) | 1 (1=0-20%) | 1 (1=0-20%) | 1 (1=0-20%)
5 | CCn1c(C)c(-c2ccc(Cl)s2)c(=O)c(C(=O)O)c1-c1ccc(Cl)cc1 [Compound 166, 2-(4-chlorophenyl)-5-(5-chloro-2-thienyl)-1-ethyl-6-methyl-4-oxo-pyridine-3-carboxylic acid] | 2 (2=21-40%) | 1 (1=0-20%) | 1 (1=0-20%) | 3 (3=41-60%) | 2 (2=21-40%) | 3 (3=41-60%) | 0 | 0 | 1 (1=0-20%) | 1 (1=0-20%) | 0 | 1 (1=0-20%)
6 | CCn1c(C)c(-c2cc(Cl)c(OC)c(OC)c2)c(=O)c(C(=O)O)c1-c1ccc(Cl)c(Cl)c1 [Compound 87, 5-(3-chloro-4,5-dimethoxy-phenyl)-2-(3,4-dichlorophenyl)-1-ethyl-6-methyl-4-oxo-pyridine-3-carboxylic acid] | 2 (2=21-40%) | 2 (2=21-40%) | 1 (1=0-20%) | 3 (3=41-60%) | 2 (2=21-40%) | 3 (3=41-60%) | 1 (1=0-20%) | 1 (1=0-20%) | 1 (1=0-20%) | 1 (1=0-20%) | 4 (4=61-80%) | 1 (1=0-20%)
7 | CCn1c(C)c(-c2cc(F)c(F)c(F)c2)c(=O)c(C(=O)O)c1-c1ccc(Cl)c(Cl)c1 [Compound 73, 2-(3,4-dichlorophenyl)-1-ethyl-6-methyl-4-oxo-5-(3,4,5-trifluorophenyl)pyridine-3-carboxylic acid] | 3 (3=41-60%) | 3 (3=41-60%) | 2 (2=21-40%) | 3 (3=41-60%) | 2 (2=21-40%) | 4 (4=61-80%) | 2 (2=21-40%) | 1 (1=0-20%) | 2 (2=21-40%) | 1 (1=0-20%) | 4 (4=61-80%) | 2 (2=21-40%)
8 | CCn1c(C)c(-c2ccc(Cl)cc2)c(=O)c(C(=O)O)c1-c1ccc(F)c(F)c1 [Compound 128, 5-(4-chlorophenyl)-2-(3,4-difluorophenyl)-1-ethyl-6-methyl-4-oxo-pyridine-3-carboxylic acid] | 3 (3=41-60%) | 2 (2=21-40%) | 3 (3=41-60%) | 4 (4=61-80%) | 3 (3=41-60%) | 4 (4=61-80%) | 2 (2=21-40%) | 2 (2=21-40%) | 1 (1=0-20%) | 4 (4=61-80%) | 5 (5=81-100%) | 3 (3=41-60%)
